# Data taken from PMC6832221 (Viruses, 2019).
# Where two headings read alike, the source gives them in different places.
# How the values were obtained:
# HCV replication = tested on: HCV replication; set-up: method as in ref 14 = [14]; conditions: previous study, cited from earlier work
# [1] = cited from earlier work
# [2] = tested on: genotype 2a HCV replication (J6/JFH1); assay: GT 2a RT-PCR in J6/JFH1 RNA-transfected Huh7.5 cells; format: cell-based, Hepatitis C virus
# [3] = tested on: genotype 1b HCV replication (Bart79I); assay: GT 1b RT-PCR in Bart79I replicon Huh7.5 cells; format: cell-based, Hepatitis C virus
# [4] = tested on: genotype 2a HCV replication (Rluc-J6/JFH1); assay: GT 2a luciferase reporter assay in Rluc-J6/JFH1 RNA-transfected Huh7.5 cells; format: cell-based, Hepatitis C virus
# [5] = target: T1, genotype 1b HCV NS3 helicase (Hepatitis C virus genotype 1b, UniProt Q9WMX2); assay: Graphene oxide (GO)-based NS3 helicase inhibition assay; format: biochemical
# T1 construct: 2 nM of HCV NS3 helicase in a total volume of 60 μL
# T1 sequence (Q9WMX2 1027-1657): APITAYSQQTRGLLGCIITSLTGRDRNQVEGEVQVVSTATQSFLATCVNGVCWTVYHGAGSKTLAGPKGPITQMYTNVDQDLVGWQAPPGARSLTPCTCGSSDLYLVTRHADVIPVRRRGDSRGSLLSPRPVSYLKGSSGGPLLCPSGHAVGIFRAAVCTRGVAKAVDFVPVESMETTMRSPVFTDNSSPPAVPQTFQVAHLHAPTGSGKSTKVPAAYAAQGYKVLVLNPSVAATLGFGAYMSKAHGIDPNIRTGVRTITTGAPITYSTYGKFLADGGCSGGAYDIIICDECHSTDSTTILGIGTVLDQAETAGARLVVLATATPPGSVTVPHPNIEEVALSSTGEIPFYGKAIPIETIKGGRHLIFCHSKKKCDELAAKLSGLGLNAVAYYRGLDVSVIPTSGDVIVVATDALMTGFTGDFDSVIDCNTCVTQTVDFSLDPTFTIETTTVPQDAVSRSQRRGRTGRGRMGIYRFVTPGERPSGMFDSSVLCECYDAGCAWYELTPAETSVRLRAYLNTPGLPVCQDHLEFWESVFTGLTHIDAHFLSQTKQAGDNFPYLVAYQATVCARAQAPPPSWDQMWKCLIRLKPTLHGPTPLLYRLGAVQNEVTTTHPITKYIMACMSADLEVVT
# [6] = tested on: HCV NS3 protein level (genotype 1b); assay: GT 1b Western blot of HCV protein in Bart79I RNA-transfected Huh7.5 cells; format: cell-based, Hepatitis C virus; conditions: for T1/2 (time for 50% reduction of HCV protein): compound at 10 μM, Western blot, Huh7.5-Bart79I (genotype 1b)
# in vitro = format: cell-based; conditions: human; Table 1 summary; read-out: CC50 (M), GT 2a luciferase reporter assay
# [7] = tested on: HCV NS3 protein expression (genotype 2a); assay: GT 2a Western blot of HCV NS3 protein in J6/JFH1 RNA-transfected Huh7.5 cells; format: cell-based, Hepatitis C virus; conditions: for T1/2 (time required for 50% reduction of the HCV NS3 protein): compound at 10 μM, Western blot, Huh7.5-J6/JFH1 (genotype 2a)
# [8] = In vivo pharmacokinetic study of SVF in mice; conditions: male, ICR, mouse, plasma
# Huh7.5 cells = assay: in vitro; format: cell-based; conditions: Table 1 summary; read-out: CC50 (M), GT 2a luciferase reporter assay
# [9] = set-up: method as in ref 25 = [25]; conditions: mice; cited from earlier work
# viral helicase NS3 = target: viral helicase NS3; set-up: method as in ref 14 = [14]; conditions: previous study; cited from earlier work
# [10] = set-up: method as in ref 14 = [14]; conditions: previous study; cited from earlier work
# [11] = read-out: EC50 (M), GT 2a RT-PCR, Table 1 summary
# [12] = read-out: EC50 (M), GT 1b RT-PCR, Table 1 summary
# [13] = Hepatitis C virus, GETYPE2A|GT2A, Huh7.5, read-out: EC50 (M), GT 2a luciferase reporter assay, Table 1 summary
# [14] = Hepatitis C virus, Huh7.5, read-out: EC50 (M), GT 1b Western blot
# [15] = read-out: EC50 (M), GT 2a Western blot, Table 1 summary
compound,measurement,setting,value
Oc1ccc(/C=C/c2cc(O)cc3c2C(c2cc(O)cc(O)c2)C(c2ccc(O)cc2)O3)cc1 (stereo not shown) [viniferin],EC50,HCV replication; read-out: EC50 value for inhibiting HCV replication in vitro,1 µM
same,oral bioavailability,[1],less than 1%
"Oc1ccc(/C=C/c2cc(O)cc3c2C(c2cc(O)cc(O)c2)C(c2ccc(O)cc2)O3)cc1 (stereo not drawn) [EVF, (+)-ε-viniferin]",fold more antiviral activity than SVF,[2]; genotype 2a RT-PCR-based HCV replication assay,3.2 fold
same,EC50,[2]; [11],2.9e-06 M
same,EC50,[3]; [12],7e-06 M
same,EC50,[4]; [13],1e-07 M
same,fold more antiviral activity than SVF,[4]; genotype 2a renilla luciferase-based HCV replication assay,2.0 fold
same,IC50,"[5]; Cy5-dsDNA substrate, 2 nM HCV NS3 helicase, fluorescence Ex/Em 650/675 nm, read-out: IC50 (half maximal inhibitory concentration), NS3 helicase",0.0587 µM
same,EC50,[6]; [14],9e-07 M
same,T1/2 (time for 50% reduction of HCV protein),[6],58.2 h
same,CC50 at 72 h,in vitro,> 1e-05 M
same,T1/2 (time required for 50% reduction of the HCV NS3 protein),[7],35.1 h
same,EC50,[7]; [15],1.2e-06 M
"Oc1ccc(/C=C/c2cc(O)cc3c2C(c2cc(O)cc(O)c2)C(c2ccc(O)cc2)O3)cc1 (racemic) [SVF, (±)- -viniferin]",EC50,[2]; [11],9.3e-06 M
same,EC50,[3]; [12],1.7e-06 M
same,EC50,"[4]; read-out: EC50 (M), GT 2a luciferase reporter assay, Table 1 summary",2e-07 M
same,T1/2 (time for 50% reduction of HCV protein),[6],13.1 h
same,EC50,"[6]; read-out: EC50 (M), GT 1b Western blot, Table 1 summary",9e-07 M
same,Cmax,"[8]; ip, intraperitoneal dose of 15 mg/kg, read-out: Cmax",2130 ± 403 ng/mL
same,Tmax,[8]; oral dose of 50 mg/kg,0.375 h
same,Cmax,"[8]; oral dose of 50 mg/kg, read-out: mean Cmax",53.5 ± 28.2 ng/mL
same,CC50,Huh7.5 cells,> 1e-05 M
same,oral bioavailability,[9],below 1%
same,T1/2 (time required for 50% reduction of the HCV NS3 protein),[7],37.1 h
same,EC50,[7]; [15],6.4e-06 M
"Oc1ccc(/C=C/c2cc(O)cc(O)c2)cc1 [resveratrol, reference compound]",dose-dependent increase of fluorescence (helicase inhibition),"[5]; negative control, up to a concentration of 10 μM",did not
Oc1ccc([C@H]2Oc3cc(O)cc(/C=C/c4ccc5c(c4)[C@@H](c4cc(O)cc6c4[C@H](c4cc(O)cc(O)c4)[C@@H](c4ccc(O)cc4)O6)[C@H](c4ccc(O)cc4)O5)c3[C@@H]2c2cc(O)cc(O)c2)cc1 [vitisin B],EC50,"HCV replication; read-out: EC50, anti-HCV activity",0.006 µM
same,IC50,viral helicase NS3,0.003 µM
same,CC50,[10],> 10 µM
"CC(=O)Oc1ccc(/C=C/c2cc(OC(C)=O)cc3c2C(c2cc(OC(C)=O)cc(OC(C)=O)c2)C(c2ccc(OC(C)=O)cc2)O3)cc1 (racemic) [SVF-5Ac, penta-acetylated (±)- -viniferin]",EC50,"[2]; Hepatitis C virus, GETYPE2A|GT2A, Huh7.5, read-out: EC50 (M), GT 2a RT-PCR, Table 1 summary",4.7e-06 M
same,EC50,"[3]; Hepatitis C virus, GETYPE1B|GT1B, Huh7.5, read-out: EC50 (M), GT 1b RT-PCR, Table 1 summary",1.04e-05 M
same,EC50,[4]; [13],2.4e-06 M
same,EC50,[6]; [14],8e-07 M
same,T1/2 (time for 50% reduction of HCV protein),[6],29.6 h
same,CC50 at 72 h,in vitro,> 1e-05 M
same,EC50,"[7]; Hepatitis C virus, GETYPE2A|GT2A, Huh7.5, read-out: EC50 (M), GT 2a Western blot, Table 1 summary",1e-06 M
same,T1/2 (time required for 50% reduction of the HCV NS3 protein),[7],>72 h
